For data set [1], the system named is dogs. The experiment in a line: Three week toxicology study in 12 dogs. The data set is classed as in vivo. To be noted: 0.2 mg/kg/min for 60 minutes twice daily for 3 weeks.
The test system of data set [2] is dogs. As to the kind of experiment: Arrhythmias produced by intravenous infusion of aconitine. In kind it is in vivo. The protocol:
To examine the effects of berberine on arrhythmias produced by intravenous infusion of aconitine in fifteen dogs after development of VEA, of at least 50% of the beats or more, the dogs were given berberine intravenously as a bolus (1-5 mg/Kg) or 5% dextrose in water.

Data set [3] concerns dogs. The experiment in a line: Lethal dose, repetitive intravenous boluses. To be noted: repetitive intravenous boluses within 4 hours.
The subject of data set [4] is dogs. As to the kind of experiment: Protocol RK: systemic arterial pressure and heart rate, pressure not held constant, two doses. The data set is classed as in vivo. From the text:
The protocol was the same as described above except that in these dogs, contrary to the previously reported series, the systolic arterial pressure was not maintained constant. Also, the dogs were instrumented only with an electrocardiogram (with lead aVF being constantly recorded), and polyethylene cannula in aorta introduced through the carotid artery to measure aortic pressures, and another cannula in the jugular vein for drug administration. Average heart rate (measured by continuously monitored electrocardiographic lead aVF) was reduced from 146 ± 4 (mean ± 1 S.E.M.) to […] (p <0.1) after the first 45 minutes. After the second 45 minutes heart beat rate was further reduced to […] (p <0.01 ).

On to `COc1ccc2cc3[n+](cc2c1OC)CCc1cc2c(cc1-3)OCO2` [berberine], for which, in the data set with dogs [1], the “side effects (electrolytes, heptatic function, renal function, proteins, coagulation, blood cells, platelet count)” value was “no side effects were observed”. Further, the tissues at post-mortem result in the data set with dogs [1] is listed as “normal histologically”. Further, the “dogs with regression of the arrhythmias to normal sinus or supraventricular rhythm” value in the data set with dogs [2] (intravenous bolus 1-5 mg/Kg after VEA of at least 50% of the beats, controls 20%) is on record as 78%. Also, in the data set on dogs [2] (two cases), the ventricular fibrillation entry is “ventricular fibrillation reverted to normal sinus rhythm”. In addition, the “average dose resulting in death due to arterial systemic hypotension” value in the data set on dogs [3] is reported as 120 mg/kg. In the data set on dogs [4] (after 90 minutes, from 114 ± 7), this compound registered a mean pressure of 96 ± 5 mmHg. For the same compound, the “pulse pressure (systolic minus diastolic pressure)” value in the data set on dogs [4] (end of the experiment, from an average of 28) amounted to 35 mmHg. Moreover, the “Mean systemic arterial pressure” value in the data set on dogs [4] (first dose, 5 minutes, from 114 ± 7) is 87 ± 5 mmHg; in the data set with dogs [4] (first dose, 10 minutes) it was 93 ± 4 mmHg; in the data set on dogs [4] (first dose, 15 minutes), 92 ± 5 mmHg; in the data set on dogs [4] (first dose, 30 minutes) it was 101 ± 7 mmHg; with dogs [4] (first dose, 45 minutes), 101 ± 7 mmHg; in the data set with dogs [4] (second dose, 5 minutes), 94 ± 4 mmHg. Besides, the “Mean systemic arterial pressure” value came out at 95 ± 6 mmHg with dogs [4] (second dose, 10 minutes); 95 ± 5 mmHg with dogs [4] (second dose, 15 minutes); 97 ± 5 mmHg with dogs [4] (second dose, 30 minutes); 97 ± 5 mmHg in the data set on dogs [4] (second dose, 45 minutes).

The record behind these values is patent EP0108147B1, “Use of a protoberberine alkaloid and composition containing same” (MAROKO, Peter R., priority 1982, dated 1983).
